Source: ChEMBL document CHEMBL5120927, “LEGO-Lipophosphonoxins: A Novel Approach in Designing Membrane Targeting Antimicrobials” (J Med Chem, 2022)
Activity calls are given as the source filed them. The calls are words filed in the database; no cut-off is given here.

Assays:
Staphylococcus aureus [1] = test: Antibacterial activity against wild type Staphylococcus aureus 77/CF assessed as reduction in microbial growth incubated for 24 hrs by microdilution assay; assay type: functional
[2] = Toxicity in human cornea epidermis model assessed as eye irritation incubated for 42 hrs; assay type: tissue-based
Cell membrane [3] = test: Induction of membrane permeabilization in Escherichia coli CCM 3954 assessed as propidium iodide influx measured after 80 mins by spectrofluorometer method; conditions: dose 2.5-5 mg/L, DDE = dose-dependent effect
[4] = Hemolytic activity in human RBC assessed as haemoglobin release measured after 3 hr; assay type: toxicity, cell-based, Erythrocyte; conditions: red blood cells (erythrocytes)
Staphylococcus aureus [5] = test: microbe, parasite or virus in culture; conditions: 5017/C, 24 h
Description: Antibacterial activity against wild type Staphylococcus aureus 5017/C assessed as reduction in microbial growth incubated for 24 hrs by microdilution assay

Staphylococcus aureus [6] = test: Antibacterial activity against wild type Staphylococcus aureus 78/CF assessed as reduction in microbial growth incubated for 24 hrs by microdilution assay; assay type: functional
[7] = Toxicity in rabbit assessed as skin irritation at 100 to 200 mg/L after administration bandaged for 4 hrs and measured after 1 to 72 hrs of contact time; set-up: species or system Oryctolagus cuniculus; conditions: in vivo, topical_or_ocular, dose lower 100 mg/L, time lower 1 hrs, dose upper 200 mg/L, time upper 76 hrs
Staphylococcus aureus [8] = test: Antibacterial activity against wild type Staphylococcus aureus 4515/A assessed as reduction in microbial growth incubated for 24 hrs by microdilution assay; assay type: functional
Staphylococcus aureus [9] = test: Antibacterial activity against Staphylococcus aureus ATCC 29213 = CCM 4223 assessed as inhibition of bacterial growth incubated for 24 hrs by microdilution assay; assay type: functional
Cell membrane [10] = test: Induction of plasma membrane depolarization in Escherichia coli CCM 3954 assessed as increase in fluorescence intensity at 2.5 mg/L measured after 80 seconds by DiSC3-5 dye based spectrofluorometer method; assay type: cell membranes; conditions: time 80.0 sec
Enterococcus faecalis = test: Antibacterial activity against Enterococcus faecalis ATCC 29212 = CCM 4224 assessed as inhibition of bacterial growth incubated for 24 hrs by microdilution assay; assay type: functional
Staphylococcus aureus [11] = test: Antibacterial activity against wild type Staphylococcus aureus 4717/B assessed as reduction in microbial growth incubated for 24 hrs by microdilution assay; assay type: functional
Escherichia coli [12] = test: Antibacterial activity against Escherichia coli CCM 3954 persisters assessed as reduction in bacterial cell count at 1 to 10 times MICincubated for 3 hrs by cell counting method; assay type: functional, organism-based
Escherichia coli [13] = test: Antibacterial activity against multidrug-resistant Escherichia coli CE5556 expressing CTX-M-15 assessed as reduction in microbial growth incubated for 24 hrs by microdilution assay; assay type: functional
Staphylococcus aureus [14] = test: Antibacterial activity against methicillin resistant Staphylococcus aureus 4591/A assessed as reduction in microbial growth incubated for 24 hrs by microdilution assay; assay type: functional
Staphylococcus aureus [15] = test: Antibacterial activity against wild type Staphylococcus aureus 4557/A assessed as reduction in microbial growth incubated for 24 hrs by microdilution assay; assay type: functional
Staphylococcus aureus [16] = test: Antibacterial activity against wild type Staphylococcus aureus 5079/C assessed as reduction in microbial growth incubated for 24 hrs by microdilution assay; assay type: functional
Staphylococcus aureus [17] = test: Antibacterial activity against wild type Staphylococcus aureus 4904/C assessed as reduction in microbial growth incubated for 24 hrs by microdilution assay; assay type: functional
Pseudomonas aeruginosa [18] = test: Antibacterial activity against multidrug-resistant Pseudomonas aeruginosa assessed as reduction in microbial growth incubated for 24 hrs by microdilution assay; assay type: functional
Cell membrane [19] = test: Induction of cell envelope damage in Staphylococcus aureus assessed as membranous nanotubes extrude from dying/dead cells at 8 mg/L measured after 8 hrs by scanning electron microscope analysis
Escherichia coli [20] = test: Antibacterial activity against Escherichia coli ATCC 25922 = CCM 3954 assessed as inhibition of bacterial growth incubated for 24 hrs by microdilution assay; assay type: functional
Pseudomonas aeruginosa [21] = test: Antibacterial activity against Pseudomonas aeruginosa CCM 3955 persisters assessed as reduction in bacterial cell count at 1 to 10 times MIC incubated for 3 hrs by cell counting method; assay type: functional, organism-based
Staphylococcus aureus [22] = test: Antibacterial activity against wild type Staphylococcus aureus 4738/B assessed as reduction in microbial growth incubated for 24 hrs by microdilution assay; assay type: functional
Staphylococcus aureus [23] = test: Antibacterial activity against wild type Staphylococcus aureus 4679/B assessed as reduction in microbial growth incubated for 24 hrs by microdilution assay; assay type: functional
Enterococcus faecium = test: Antibacterial activity against vancomycin resistant Enterococcus faecium 419/ANA assessed as reduction in microbial growth incubated for 24 hrs by microdilution assay; assay type: functional
Staphylococcus aureus [24] = test: microbe, parasite or virus in culture; conditions: 4880/C, 24 h
Description: Antibacterial activity against wild type Staphylococcus aureus 4880/C assessed as reduction in microbial growth incubated for 24 hrs by microdilution assay

Staphylococcus aureus [25] = test: Antibacterial activity against wild type Staphylococcus aureus 4566/A assessed as reduction in microbial growth incubated for 24 hrs by microdilution assay; assay type: functional
Staphylococcus aureus [26] = test: Antibacterial activity against […] Staphylococcus aureus 4460/A assessed as reduction in microbial growth incubated for 24 hrs by microdilution assay; assay type: functional
[27] = Toxicity in human cornea epidermis model assessed as tissue viability pretreated for 1 hr and measured after 42 hrs by MTT assay relative to control; assay type: tissue-based; conditions: read-out: Activity
[28] = Toxicity in human epidermis model assessed as skin irritation incubated for 42 hrs; assay type: tissue-based
Escherichia coli [29] = test: Bactericidal activity against Escherichia coli CCM 3954 assessed as reduction in viable cell count measured after 24 hrs by Time kill assay; assay type: functional, organism-based; conditions: dose 2-8 mg/L, DDE = dose-dependent effect
[30] = Gradient chromatographic hydrophobicity index of the compound at pH 3.7 by HPLC analysis; assay type: ADME
Staphylococcus aureus [31] = test: Antibacterial activity against Staphylococcus aureus ATCC 29213 = CCM 4223 assessed as inhibition of bacterial growth incubated for 24 hrs in presence of BSA by microdilution assay; assay type: functional
Cell membrane [32] = test: Induction of plasma membrane depolarization in Staphylococcus aureus assessed as formation of fluctuating unstable pores at 2.5 mg/L; assay type: cell membranes
Staphylococcus aureus [33] = test: Bactericidal activity against Staphylococcus aureus CCM 4223 assessed as reduction in viable cell count measured after 24 hrs by Time kill assay; assay type: functional, organism-based; conditions: DDE = dose-dependent effect
Staphylococcus aureus [34] = test: Antibacterial activity against wild type Staphylococcus aureus 4482/A assessed as reduction in microbial growth incubated for 24 hrs by microdilution assay; assay type: functional
[35] = test system: Staphylococcus epidermidis; test: Antibacterial activity against Staphylococcus epidermidis CCM 7221 assessed as inhibition of bacterial growth incubated for 24 hrs by microdilution assay; assay type: functional
Lipid bilayer = test: Induction of membrane disruption of bacterial inner membrane mimic DOPE/DOPG (2:1) large unilamellar vesicles assessed as carboxyfluorescein leakage at 2.5 mg/L measured after 90 mins by spectrofluorometer analysis
Staphylococcus aureus [36] = test: Antibacterial activity against wild type Staphylococcus aureus 4740/B assessed as reduction in microbial growth incubated for 24 hrs by microdilution assay; assay type: functional
Cell membrane [37] = test: Induction of cell envelope damage in Staphylococcus aureus assessed as loss of cell integrity at 8 mg/L measured after 8 hrs by scanning electron microscope analysis; assay type: subcellular
Escherichia coli [38] = test: Antibacterial activity against Escherichia coli ATCC 25922 = CCM 3954 assessed as inhibition of bacterial growth incubated for 24 hrs in presence of BSA by microdilution assay; assay type: functional
Cell membrane [39] = test: Induction of cell envelope damage in Staphylococcus aureus assessed as loss of cytoplasmic content at 8 mg/L measured after 8 hrs by scanning electron microscope analysis; assay type: subcellular
Staphylococcus aureus [40] = test: Antibacterial activity against wild type Staphylococcus aureus 4968/C assessed as reduction in microbial growth incubated for 24 hrs by microdilution assay; assay type: functional

CCCCCCCCOP(=O)(CCN(CCCN)CCCN)OCCCCCCOP(=O)(CCN(CCCN)CCCN)OCCCCCCCC.Cl.Cl.Cl.Cl.Cl.Cl (stereo not drawn)
MIC (Staphylococcus aureus [1]): 0.5 µg/mL | Activity [2]: Non-Toxic | Activity (Cell membrane [3]): Dde | HC50 at 3 h [4]: 162 µg/mL | MIC (Staphylococcus aureus [5]): 0.5 µg/mL | MIC (Staphylococcus aureus [6]): 1 µg/mL | Activity [7]: Non-Toxic | MIC (Staphylococcus aureus [8]): 1 µg/mL | MIC (Staphylococcus aureus [9]): 0.5 µg/mL | Activity (Cell membrane [10]): Active | MIC (Enterococcus faecalis): 1 µg/mL | MIC (Staphylococcus aureus [11]): 0.5 µg/mL | Activity (Escherichia coli [12]): Active | MIC (Escherichia coli [13]): 1 µg/mL | MIC (Staphylococcus aureus [14]): 1 µg/mL | MIC (Staphylococcus aureus [15]): 0.5 µg/mL | MIC (Staphylococcus aureus [16]): 0.5 µg/mL | MIC (Staphylococcus aureus [17]): 0.5 µg/mL | MIC (Pseudomonas aeruginosa [18]): 2 µg/mL | Activity (Cell membrane [19]): Active | MIC (Escherichia coli [20]): 0.5 µg/mL | Activity (Pseudomonas aeruginosa [21]): Active | MIC (Staphylococcus aureus [22]): 0.5 µg/mL | MIC (Staphylococcus aureus [23]): 0.5 µg/mL | MIC (Enterococcus faecium): 8 µg/mL | MIC (Staphylococcus aureus [24]): 0.5 µg/mL | MIC (Staphylococcus aureus [25]): 0.5 µg/mL | MIC (Staphylococcus aureus [26]): 1 µg/mL | viability at 42 h [27]: > 60% | Activity [28]: Non-Toxic | Activity (Escherichia coli [29]): Dde | CHI [30]: 36.9 | MIC (Staphylococcus aureus [31]): 1 µg/mL | Activity (Cell membrane [32]): Active | Activity (Staphylococcus aureus [33]): Dde | MIC (Staphylococcus aureus [34]): 0.5 µg/mL | MIC [35]: 0.5 µg/mL | Activity (Lipid bilayer): Active | MIC (Staphylococcus aureus [36]): 0.5 µg/mL | Activity (Cell membrane [37]): Active | MIC (Escherichia coli [38]): 0.5 µg/mL | Activity (Cell membrane [39]): Active | MIC (Staphylococcus aureus [40]): 1 µg/mL
